≈ marks a conversion by molar mass, not a printed value. A value given as a limit tells only on which side of the number the result lay.

The record followed here is ChEMBL document CHEMBL5226349, “Novel Antimicrobial 8-Hydroxyquinoline-Based Agents: Current Development, Structure-Activity Relationships, and Perspectives” (J Med Chem, 2021).

Data set [1] concerns Mycobacterium tuberculosis. The experiment in a line: Antibacterial activity against Mycobacterium tuberculosis. The data set is classed as functional.
The next data set deals with Candida albicans. The experiment in a line: Antifungal activity against Candida albicans. The data set is classed as functional.
The next data set concerns Chlamydia. Nature of the data set: Antibacterial activity against Chlamydia. The data set is classed as functional.
Data set [2] deals with Botulinum neurotoxin type F (Clostridium botulinum, UniProt P30996). The experiment in a line: Inhibition of Botulinum neurotoxins/F.
Chain of Botulinum neurotoxin type F (P30996 1-436 limits assumed): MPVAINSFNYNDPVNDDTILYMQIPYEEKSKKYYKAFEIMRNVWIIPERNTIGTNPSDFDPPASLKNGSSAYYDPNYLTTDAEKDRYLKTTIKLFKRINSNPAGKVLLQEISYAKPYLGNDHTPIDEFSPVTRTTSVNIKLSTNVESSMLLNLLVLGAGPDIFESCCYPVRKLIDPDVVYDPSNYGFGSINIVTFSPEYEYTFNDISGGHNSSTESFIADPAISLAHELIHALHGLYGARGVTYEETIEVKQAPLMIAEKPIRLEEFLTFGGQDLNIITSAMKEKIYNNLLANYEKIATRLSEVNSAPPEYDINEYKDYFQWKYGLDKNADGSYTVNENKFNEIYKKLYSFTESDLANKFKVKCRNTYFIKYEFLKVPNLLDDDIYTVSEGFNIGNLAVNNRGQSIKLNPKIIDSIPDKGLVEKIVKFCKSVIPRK
The subject of the next data set is Nakaseomyces glabratus. The experiment in a line: Antifungal activity against Candida glabrata. The data set is classed as functional.
Data set [3] in a line: Cytotoxicity against human HeLa cells. The data set is classed as toxicity, cell-based.
For another data set, the system named is Staphylococcus aureus. Nature of the data set: Antibiofilm activity against methicillin-resistant Staphylococcus aureus. The data set is classed as functional.
The subject of data set [4] is Staphylococcus epidermidis. Nature of the data set: Antibiofilm activity against methicillin-resistant Staphylococcus epidermidis. The data set is classed as functional.
A further data set relates to Enterococcus. The experiment in a line: Antibiofilm activity against vancomycin-resistant Enterococcus. The data set is classed as functional.
A short description of data set [5]: Inhibition of Aeromonas proteolytica aminopeptidase. Details: species or system Vibrio proteolyticus.
The subject of a further data set is Aspergillus. The experiment in a line: Antifungal activity against Aspergillus. The data set is classed as functional.
Another data set deals with Microsporum. Nature of the data set: Antifungal activity against Microsporum. The data set is classed as functional.
The subject of another data set is Trichophyton. Nature of the data set: Antifungal activity against Trichophyton. The data set is classed as functional.
Data set [6] can be described thus: Inhibition of Mycobacterium tuberculosis MetAP1a.
A short description of data set [7]: Inhibition of Mycobacterium tuberculosis MetAP1c.
The nature of data set [8]: Inhibition of Mycobacterium tuberculosis Zmp1.

`Nc1ccc2cccc(O)c2n1` came in with an MIC in [1] of 4.6 µM (≈ 0.737 µg/mL).

Turning to `O=C(O)c1ccc(O)c2ncccc12`, the MIC against Candida albicans was 1250 µM (≈ 236 µg/mL).

`O=[N+]([O-])c1cc(CN2CCN(c3ccccc3)CC2)c(O)c2ncccc12` displayed an MBC against Chlamydia of 25 µM (≈ 9.11 µg/mL).

In turn, `Oc1cccc2ccc(/C=C/c3ccccc3Cl)nc12` yielded an MIC in [1] of 5.8 µM (≈ 1.63 µg/mL). This counts as single-digit micromolar.

In data set [2], `Cc1ccnc(NC(c2ccccc2)c2ccc3cccnc3c2O)c1` (centres undefined) had an IC50 of 14.9 µM.

Take `O=C(O)c1ccc(NC(c2ccccc2)c2ccc3cccnc3c2O)cc1` (centres undefined): it took 30.5 µM to reach half-maximal inhibition in data set [2] (IC50).

Turning to `O=[N+]([O-])c1cc(CN2CCN(c3ccc(F)cc3)CC2)c(O)c2ncccc12`, the MBC in the data set on Chlamydia turned out to be 3.13 µM (≈ 1.2 µg/mL). In other words, the single-digit micromolar range.

In turn, `O=[N+]([O-])c1cc(CN2CCC(c3ccccc3)C2)c(O)c2ncccc12` (centres undefined) gave an MBC against Chlamydia of 12.5 µM (≈ 4.37 µg/mL). Compared with the last compound, the MBC is about 4-fold higher.

In data set [1], `Oc1cccc2ccc(Nc3ccccc3)nc12` displayed an MIC above 20 µM.

`Oc1c(Cl)cc(Cl)c2ccc(/C=C/c3ccc(/C=C/c4ccc5c(Cl)cc(Cl)c(O)c5n4)cc3)nc12`: in data set [1], the MIC was above 72.2 µM.

Turning to `O=S(=O)(O)c1ccc(O)c2ncccc12`, the MIC in the data set with Candida albicans and against Nakaseomyces glabratus was 4.44 µM (≈ 1 µg/mL) in each case.

Compound `O=C(Nc1cccc(Cl)c1)c1ccc2cccc(O)c2n1` returned an MIC in [1] of 50 µM (≈ 14.9 µg/mL).

In turn, `O=C(Nc1ccccc1Br)c1ccc2cccc(O)c2n1` registered an MIC in [1] of 23 µM (≈ 7.89 µg/mL).

The compound `O=C(Nc1cccc(C(F)(F)F)c1)c1ccc2cccc(O)c2n1` returned an MIC in data set [1] of 24 µM (≈ 7.97 µg/mL). The MIC values of the last two compounds are within 1.5-fold of each other.

In the case of `O=C(Nc1ccc(C(F)(F)F)cc1)c1ccc2cccc(O)c2n1`, in data set [1], the MIC was determined as 24 µM (≈ 7.97 µg/mL).

`O=C(Nc1ccccc1[N+](=O)[O-])c1ccc2cccc(O)c2n1` came in with an MIC in data set [1] of 97 µM (≈ 30 µg/mL).

`CCOC(=O)c1cc2c(Br)cc(Br)c(O)c2nc1C` had an IC50 in data set [3] above 100 µM.

In data set [1], `Oc1cccc2ccc(N3CCCCC3)nc12` displayed an MIC above 20 µM.

Turning to `Oc1c(Br)cc(Br)c2ccc(CNc3ccc(F)cc3)nc12`, the results for the MBEC (with Staphylococcus aureus; in [4]; in the data set with Enterococcus) were 93.8 µM, 5.9 µM and 1 µM, respectively.

`Cc1ccc2ccc(C(=O)NCc3ccc(F)cc3)c(O)c2n1`: the MIC in [1] was above 500 µM.

Take `COc1ccc(CNC(=O)c2ccc3ccc(C)nc3c2O)cc1`: the MIC in data set [1] is above 500 µM.

Consider `Cc1ccc2ccc(C(=O)NCc3ccccc3)c(O)c2n1`, for which, in [1], the MIC was above 500 µM.

`Cc1ccc(CNC(=O)c2ccc3ccc(C)nc3c2O)cc1`: in data set [1], the MIC was above 500 µM.

The compound `COc1cccc(/C=C/c2ccc3cccc(O)c3n2)c1` registered an MIC in [1] above 200 µM.

Turning to `Oc1ccc(C(F)(F)F)c2cccnc12`, in data set [5], the Ki was found to be 0.37 µM.

As to `CC(=O)N1CCN(c2nc(Nc3ccc(C#N)c(C(F)(F)F)c3)nc(Oc3cccc4cccnc34)n2)CC1`, the MIC in data set [1] was 117 µM (≈ 62.5 µg/mL); in the data set on Aspergillus, 9.8 µM (≈ 5.24 µg/mL).

Consider `COc1cc(OC)nc(Nc2ccc3cccnc3c2O)n1`, for which the MIC with Microsporum and in the data set on Trichophyton was 3.35 µM (≈ 0.999 µg/mL) in each case.

As to `O=C(NCCO[C@H]1O[C@H](CO)[C@@H](O)[C@H](O)[C@@H]1O)c1ccc2cccnc2c1O`, in the data set on Candida albicans, the lowest concentration to inhibit growth (MIC) was 10000 µM (≈ 3940 µg/mL). That is a millimolar value.

Consider `NS(=O)(=O)c1cc(Cl)c2cccnc2c1O`, for which, in data set [5], the Ki is above 100 µM.

For `O=C(O)c1ccc2ccc(/C=C/c3ccccc3Cl)nc2c1O`, it took 120 µM (≈ 39.1 µg/mL) to inhibit growth in [1] (MIC).

With `Clc1cc2c(c3ncccc13)OCN(C1CCCCC1)C2`, the IC50 stood at 4.3 µM in data set [6] and 3.76 µM in [7].

Compound `Cc1ccc2[nH]c(-c3ccccc3)c(C(NNC(=O)c3ccncc3)c3ccc4cccnc4c3O)c2c1` (centres undefined) had an MIC in [1] of 100 µM (≈ 50 µg/mL).

With `O=C(NCCCc1ccccc1)c1ccc2cccc(O)c2n1`, the IC50 in data set [8] is above 10 µM.
